Data published in patent US20100324285A1, “ANTIINFLAMMATORY AGENT COMPRISING 2-AMINOPHENOL OR DERIVATIVE THEREOF AS ACTIVE INGREDIENT” (priority 2006, published 2010).
pIC50: −log10 of the molar value.

What was measured:
RAW264.7 cells [1] = experiment: PGE2 production by macrophage RAW264.7, PGE2-EIA kit; assay type: cell-based, mouse; details: LPS + IFN-γ, 2 days, relative level versus control
Source text: (§1) RAW264.7 cells, a murine macrophage cell strain, were suspended in PRMI1640 medium supplied with 10% (v/v) fetal calf serum (hereinafter abbreviated as “FCS”) to give a cell suspension with a cell concentration of 1×10^6 cells/ml. […] The experimental system without the test samples described above was set as control. […] NO production, PGE2 production and macrophage growth are indicated as relative levels versus controls.

RAW264.7 cells [2] = experiment: Macrophage growth, living cell count; assay type: cell-based, mouse; details: 2 days, relative level versus control
Source text: as §1

COX-2 = target: T1, COX-2 (Homo sapiens, UniProt P35354); experiment: COX Inhibitor Screening Assay Kit, COX-2; assay type: biochemical
T1 sequence (P35354 18-604): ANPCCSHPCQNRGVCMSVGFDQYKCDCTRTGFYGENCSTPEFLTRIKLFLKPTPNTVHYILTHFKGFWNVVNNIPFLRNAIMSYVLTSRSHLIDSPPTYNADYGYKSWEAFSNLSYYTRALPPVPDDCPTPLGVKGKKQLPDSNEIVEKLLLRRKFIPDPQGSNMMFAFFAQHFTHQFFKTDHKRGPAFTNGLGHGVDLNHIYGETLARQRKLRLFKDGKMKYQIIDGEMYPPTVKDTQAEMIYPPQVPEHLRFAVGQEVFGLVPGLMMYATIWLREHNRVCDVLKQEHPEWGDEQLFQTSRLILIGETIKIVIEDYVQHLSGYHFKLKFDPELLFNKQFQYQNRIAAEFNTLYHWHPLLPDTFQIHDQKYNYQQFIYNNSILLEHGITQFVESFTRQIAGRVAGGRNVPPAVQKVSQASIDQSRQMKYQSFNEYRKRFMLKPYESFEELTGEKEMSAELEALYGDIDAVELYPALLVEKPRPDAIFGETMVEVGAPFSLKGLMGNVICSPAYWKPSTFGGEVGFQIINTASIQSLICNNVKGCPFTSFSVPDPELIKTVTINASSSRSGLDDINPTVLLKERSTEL
Source text: Fifty percent inhibitory concentration (IC50) means the concentration of test sample necessary for inhibiting PGE2 synthesis by 50% compared to non-inhibitory control sample. It can be also determined by measuring the amount of PGE2 produced by adding test samples to cells having cyclooxygenase activity. COX-1/COX-2 ratio means the ratio of […], and the higher the ratio is, the more specific to COX-2 the agent is.
To verify the results of Experiment 2, it was investigated that whether the activity of COXs, essential enzymes for PGE2 synthesis system, can be inhibited. […] An experimental system without the test samples was set as control. The residual activity of COX-1 or COX-2 was determined as relative activity versus control.

[3] = read-out: residual activity of COX-2

Nc1cc2nc3ccccc3oc-2cc1=O [2-Aminophenoxazine-3-one, 2-aminophenoxazine-3-one]
PGE2 production (%) (RAW264.7 cells [1]; 0.16 μM): 76%
PGE2 production (%) (RAW264.7 cells [1]; 0.31 μM): 45%
PGE2 production (%) (RAW264.7 cells [1]; 0.63 μM): 13%
PGE2 production (%) (RAW264.7 cells [1]; 1.3 μM): 6%
PGE2 production (%) (RAW264.7 cells [1]; 2.5 μM): 1%
PGE2 production (%) (RAW264.7 cells [1]; 5.0 μM): 3%
PGE2 production (%) (RAW264.7 cells [1]; 10 μM): 2%
Macrophage growth (%) (RAW264.7 cells [2]; 0.16 μM): 117%
Macrophage growth (%) (RAW264.7 cells [2]; 0.31 μM): 121%
Macrophage growth (%) (RAW264.7 cells [2]; 0.63 μM): 127%
Macrophage growth (%) (RAW264.7 cells [2]; 1.3 μM): 127%
Macrophage growth (%) (RAW264.7 cells [2]; 2.5 μM): 119%
Macrophage growth (%) (RAW264.7 cells [2]; 5.0 μM): 112%
Macrophage growth (%) (RAW264.7 cells [2]; 10 μM): 86%
pIC50 (COX-2; PGE2 from arachidonic acid, read-out: IC50 COX-2): 5.32
COX-1/COX-2 ratio (COX-2; ratio of IC50 values of Table 2): about 1.3
remaining activity at 1.9 µM (COX-2; [3]): 95%
remaining activity at 3.8 µM (COX-2; [3]): 37%
remaining activity at 7.6 µM (COX-2; [3]): 29%
